Test [1] relates to Escherichia coli D21f2 with a truncated LPS barrier. Put plainly: MIC (microdilution) against E. coli D21f2. In kind it is cell-based. The essentials: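 Tested on E. coli JW5503 (ΔtolC, no TolC efflux) and D21f2 (defective LPS inner core, more permeable outer membrane) per EUCAST microdilution in Mueller-Hinton broth, twofold dilutions 50 to 0.39 µg/mL, 1:100-diluted overnight culture. 18 h at 37°C. MIC = lowest concentration with no growth by OD600.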
(In broth dilution the organism is exposed to a series of concentrations in liquid medium.)

Another test has as its target T1, E. coli EnvZ (Escherichia coli, UniProt P0AEJ4).
T1 construct: Cytoplasmic domains from S. aureus PhoR and E. coli EnvZ; His6; made in house; host or cells: E. coli RIL
The experiment in a line: HK autophosphorylation inhibition, EnvZ. In kind it is biochemical. How it is done:
Cytoplasmic domains from S. aureus PhoR and E. coli EnvZ as well the CA domain of Thermotoga maritima CheA were cloned in pNIC28-Bsa4 ([54]) plasmid containing His6-tag expressed in E. coli RIL and purified as previously described ([21], [55], [56]) using His-affinity and size exclusion chromatography. Briefly, E. coli RIL strains carrying the appropriate plasmid were grown in 1 L Luria broth (LB) (Merck Millipore) supplemented with kanamycin (100 µg/mL) with shaking (200 r.p.m.) at 37°C. When OD600 reached 0.5, 1 mM isopropyl-ß-D-1-thiogalactopyranoside (IPTG) was added to induce protein expression and cells were grown for 3 more hours. Cells were harvested by centrifugation (4,000 g, 4°C), resuspended in 40 mL buffer A (50 mM Tris-HCl pH 8.0, 0.5 M NaCl, 10% glycerol, and 1 mM phenylmethanesulfonyl fluoride), sonicated (4°C, 5 min with pulses of 15 sec at intervals of 1 min), and centrifuged (11,000 g, 4°C, 60 min). Supernatant was passed through a 5-mL HisTrap HP column (GE Healthcare) equilibrated in buffer A using the AKTA system (GE Healthcare). His-column was washed with buffer A (80 mL), and a linear gradient of imidazole (range 0 to 0.25 M) in buffer A was applied. The purest fractions evaluated by SDS-PAGE were collected, concentrated by ultrafiltration in a Amicon Ultra-15 (10- or 30-kDa exclusion) (Merck Millipore), and further purified by gel filtration using Superdex 200 column (GE Healthcare), equilibrated in buffer B (50 mM TrisHCl, pH 8.0, 0.2 M NaCl, and 5% glycerol). Purified proteins were then concentrated using ultrafiltration and stored at −80°C.
Autophosphorylation inhibition assays were performed in kinase assay buffer [100 mM Tris-HCl (pH 8.0), 5 mM MgCl2, 10 mM DTT], containing 5 µg of purified HK and 10 mM ATP for 30 min at 25°C. The reaction was stopped by adding gel loading buffer containing 16% SDS before loading the reaction on a 12% SDS-PAGE. […] To detect autophosphorylation, the gel was transferred to a nitrocellulose membrane (GE Healthcare) at 100 V in the transfer buffer (25 mM Tris, 192 mM Glycine, 10% Methanol). The membrane was then blocked using Tris-buffered saline solution with 0.1% vol/vol Tween 20 (TBS-T) supplied with 5% bovine serum albumin. The phosphorylated histidine was detected by western blotting by then incubating the membrane for 60 min with 1:1,000 anti-N1-phosphohistidine antibody (Merck Millipore) in TBS-T followed by a washing step for 30 min with TBS-T and a final 60-min incubation with 1:10,000 horseradish […] anti-rabbit IgG (Promega) in TBS-T. Chemiluminescent reaction was measured using Pierce ECL immunoblotting substrate (Thermo Scientific) in a LAS 3000 image analyzer (Fujifilm Life Science, Tokyo, Japan) followed by densitometric analysis using Multi Gauge image-analysis software (Fujifilm Life Science, Tokyo, Japan). The inhibitor concentrations required to halve the chemiluminescence intensity (IC50) were determined using Prism 4.1 (GraphPad Software, San Diego, CA, USA).

Where [2] appears, read: bound from first screening at 2 mM.

In brackets after ≈: the same amount, converted by molar mass. Where two headings read alike, the source gives them in different places.

The term MIC denotes the lowest concentration that inhibits growth of the organism. The term IC50 denotes the concentration needed to halve the response being measured. A low value points to higher potency.

T1 sequence (P0AEJ4 180-450): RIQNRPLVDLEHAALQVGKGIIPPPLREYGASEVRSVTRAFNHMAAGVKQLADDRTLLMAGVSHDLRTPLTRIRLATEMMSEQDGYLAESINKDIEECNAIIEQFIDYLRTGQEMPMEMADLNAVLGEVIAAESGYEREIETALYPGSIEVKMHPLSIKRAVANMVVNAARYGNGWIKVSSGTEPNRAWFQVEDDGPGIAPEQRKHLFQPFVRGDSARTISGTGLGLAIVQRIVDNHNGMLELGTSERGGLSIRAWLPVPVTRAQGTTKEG

`COc1ccc(-c2[nH]nc(C(F)(F)F)c2-c2ccc(Cl)cc2)c(O)c1` [DPP-6]: the MIC in test [1] (read-out: MIC E coli D21f2) and in test [1] (read-out: MIC E. coli D21f2) was 25 µg/mL (≈ 67.8 µM) each time. The half-maximal inhibitory concentration (IC50) against E. coli EnvZ (± SD, n = 2, 10 mM ATP) is 98 ± 11.8 µM.
`COc1ccc(-c2[nH]nc(C(F)(F)F)c2-c2ccccc2)c(O)c1` [DPP-2]: the MIC in test [1] (read-out: MIC E coli D21f2) and in test [1] (read-out: MIC E. coli D21f2) was 50 µg/mL (≈ 150 µM) in each case. The IC50 against E. coli EnvZ (setting [2]) was less than 2000 µM.
Regarding `COc1ccc(-c2c(C(F)(F)F)n[nH]c2-c2ccc(O)cc2O)cc1` [DPP-12], the MIC was greater than 50 µg/mL in test [1] (read-out: MIC E coli D21f2) and greater than 250 µg/mL in test [1] (read-out: MIC E. coli D21f2). For the same molecule, at E. coli EnvZ (± SD, n = 2, 10 mM ATP), inhibition was half-maximal at 427 ± 9.1 µM (IC50).
With `Oc1ccc(-c2n[nH]c(C(F)(F)F)c2-c2ccc(Cl)cc2)c(O)c1` [DPP-5], the MIC in test [1] (read-out: MIC E coli D21f2) and in test [1] (read-out: MIC E. coli D21f2) was 50 µg/mL (≈ 141 µM) each time. Also, 117 ± 6.3 µM corresponded to half-maximal inhibition at E. coli EnvZ (± SD, n = 2, 10 mM ATP) (IC50).
Regarding `COc1ccc(-c2c(C(F)(F)F)n[nH]c2-c2ccc(OC)cc2O)cc1` [DPP-13], the MIC in test [1] (read-out: MIC E coli D21f2) was greater than 50 µg/mL; in test [1] (read-out: MIC E. coli D21f2) it was greater than 250 µg/mL. Besides, at E. coli EnvZ (± SD, n = 2, 10 mM ATP), half-maximal inhibition (IC50) was put at 175 ± 10.1 µM.
Take `CCOc1ccc(-c2[nH]nc(C(F)(F)F)c2-c2ccc(Cl)cc2)c(O)c1` [DPP-7]: the MIC in test [1] (read-out: MIC E coli D21f2) and in test [1] (read-out: MIC E. coli D21f2) was 25 µg/mL (≈ 65.3 µM) each time. The same molecule yielded an IC50 against E. coli EnvZ (setting [2]) of less than 2000 µM.

The values are drawn from PMC11302729, “Repurposing Hsp90 inhibitors as antimicrobials targeting two-component systems identifies compounds leading to loss of bacterial membrane integrity” (Microbiology Spectrum, 2024).
